Experimental data reported in patent US8968794B2, “Antiseptic compositions and uses thereof” (Ramot at Tel-Aviv University Ltd., priority 2009, dated 2015).

Columns and labels:
Test in all cases: Bactericidal activity, log10 CFU/ml after 0, 30 and 60 minutes
Type in all cases: cell-based
[1] = tested on: Escherichia coli ATCC 47076; settings: baseline 7.3
Method: A frozen stock of E. coli ATCC 47076 was grown overnight (1 ml in 9 ml LB medium) in a shaker incubator (200 rpm at 37° C.) until the OD600nm of the medium reached 1.6-1.8. […] The Bacterial suspension was adjusted to 10^8 CFU/ml by dilution with sterile medium. The Bacterial cells were then washed three times with 0.9% NaNO3. The NaNo3 washing cycles was performed by transferring 5 ml of the bacterial suspensions into 15 ml test tubes and subjecting the suspension to centrifugation at 4000 rpm at 4° C. for 5 minutes, followed by removal of the supernatant and re-suspension of the bacterial cell pellet in 5 ml of 0.9% NaNO3. The bactericidal activity of various concentration combinations of silver ions (from AgNO3) and menthol (solubilized by the addition of 0.5% TWEEN 20) was then assessed by adding 5 ml of the tested combinations to the bacterial cell pellets prepared as described hereinbelow and re-suspending the cell pellets by vortex. A test tube containing only 0.9% NaNO3 served as control. The bacterial suspensions thus obtained were transferred to sterile glass tubes to reduce potential cell adsorption to the walls, and kept covered at 37° C. throughout the testing period. Following 5 minutes of static incubation, 100 μl samples of the treated bacterial suspension were removed, and […] decimal dilutions in NaNO3 0.9% of the suspension were dropped onto LB agar plates. The level of bacterial proliferation was assessed by counting the number of colonies that grew on the plates and calculating the CFU/ml and log10 CFU/ml following 18 hours of incubation at 37° C. Higher log10 CFU/ml calculated for a bacterial suspension, incubated with a specific combination, is indicative of a lower level of bactericidal activity of that combination. The bacterial growth protocol was essentially as described above only that bacteria cell lines were grown in BHI growth medium (and following the growth of the cells in the medium, the bacterial suspension was adjusted to 10^7 CFU/ml by dilution with sterile medium). In addition, in these experiments, the static incubation of each bacterial suspension with the silver ion+menthol combination was for 0, 30 and 60 minutes. […] Cells incubated with NaNO3 0.9% (w/v) solution alone, without the addition of any antiseptic agent, served as control. […] S. Block, Editor. 2000, Lippincott Williams and Wilkins, pp 1305-1328. […] A baseline level was defined as the observed bacteria growth at time 0 when no antiseptic agent was added to the bacterial suspension.

Klebsiella pneumoniae = settings: baseline 6.8
Text: (§1) Various bacterial cells lines were obtained from the clinical strains collection of the Laboratory of Molecular Epidemiology and Antimicrobial Resistance, Tel Aviv Sourasky Medical Center. The bactericidal activity of the tested antiseptic combinations was thus tested against Klebsiella pneumoniae, a Methicillin Resistant clinical strain of Staphylococcus aureus (MRSA), a clinical strain of Staphylococcus epidermis, a clinical strain of Extended Spectrum β-lactamase producing Escherichia coli, a clinical strain of Multi Drug Resistant Acinetobacter baumannii, and a clinical strain of Multi Drug Resistant Pseudomonas aeruginosa.
(§2) The bacterial growth protocol was essentially as described above only that bacteria cell lines were grown in BHI growth medium (and following the growth of the cells in the medium, the bacterial suspension was adjusted to 10^7 CFU/ml by dilution with sterile medium). In addition, in these experiments, the static incubation of each bacterial suspension with the silver ion+menthol combination was for 0, 30 and 60 minutes.
(§3) The effect of a combination of 0.01% silver ions and 0.05% menthol (solubilized by 0.5% (v/v) TWEEN 20) on the growth and viability of various types of bacteria was evaluated.
(§4) Cells incubated with NaNO3 0.9% (w/v) solution alone, without the addition of any antiseptic agent, served as control.
(§5) Table 2 presents the log10 CFU/ml calculated for different types of bacterial cell suspensions incubated for 0, 30 and 60 minutes with no antiseptic agent (control) or either 0.01% silver ions (0.01% AgNO3) alone, 0.05% menthol alone or a combination of 0.01% silver ions and 0.05% menthol. A baseline level was defined as the observed bacteria growth at time 0 when no antiseptic agent was added to the bacterial suspension.

[2] = tested on: Methicillin Resistant clinical strain of Staphylococcus aureus (MRSA); settings: baseline 6.1
Text: as §1, §2, §3, §4, §5

[3] = tested on: clinical strain of Extended Spectrum β-lactamase producing Escherichia coli; settings: baseline 5.9
Text: as §1, §2, §3, §4, §5

[4] = tested on: clinical strain of Multi Drug Resistant Acinetobacter baumannii; settings: baseline 6.4
Text: as §1, §2, §3, §4, §5

[5] = tested on: clinical strain of Multi Drug Resistant Pseudomonas aeruginosa; settings: baseline 6.5
Text: as §1, §2, §3, §4, §5

[6] = tested on: clinical strain of Staphylococcus epidermis; settings: baseline 5.4
Text: as §1, §2, §3, §4, §5

Row | SMILES | log10 CFU/ml of bacteria ([1]; treated for 0 minutes) [log10 CFU/ml] | log10 CFU/ml of bacteria ([1]; treated for 30 minutes) [log10 CFU/ml] | log10 CFU/ml of bacteria ([1]; treated for 60 minutes) [log10 CFU/ml] | log10 CFU/ml of bacteria (Klebsiella pneumoniae; treated for 0 minutes) [log10 CFU/ml] | log10 CFU/ml of bacteria (Klebsiella pneumoniae; treated for 30 minutes) [log10 CFU/ml] | log10 CFU/ml of bacteria (Klebsiella pneumoniae; treated for 60 minutes) [log10 CFU/ml] | log10 CFU/ml of bacteria ([2]; treated for 0 minutes) [log10 CFU/ml] | log10 CFU/ml of bacteria ([2]; treated for 30 minutes) [log10 CFU/ml] | log10 CFU/ml of bacteria ([2]; treated for 60 minutes) [log10 CFU/ml] | log10 CFU/ml of bacteria ([3]; treated for 0 minutes) [log10 CFU/ml] | log10 CFU/ml of bacteria ([3]; treated for 30 minutes) [log10 CFU/ml] | log10 CFU/ml of bacteria ([3]; treated for 60 minutes) [log10 CFU/ml] | log10 CFU/ml of bacteria ([4]; treated for 0 minutes) [log10 CFU/ml] | log10 CFU/ml of bacteria ([4]; treated for 30 minutes) [log10 CFU/ml] | log10 CFU/ml of bacteria ([4]; treated for 60 minutes) [log10 CFU/ml] | log10 CFU/ml of bacteria ([5]; treated for 0 minutes) [log10 CFU/ml] | log10 CFU/ml of bacteria ([5]; treated for 30 minutes) [log10 CFU/ml] | log10 CFU/ml of bacteria ([5]; treated for 60 minutes) [log10 CFU/ml] | log10 CFU/ml of bacteria ([6]; treated for 0 minutes) [log10 CFU/ml] | log10 CFU/ml of bacteria ([6]; treated for 30 minutes) [log10 CFU/ml] | other results
1 | O=[N+]([O-])[O-].[Ag+] [0.01% AgNO3, silver nitrate] | 6.4 | 0 | 0 | 0 | 0 | 0 | 5.4 | 0 | 0 | 4.8 | 0 | 0 | 6.3 | 0 | 0 | 5.1 | 0 | 0 | 0 | 0 | log10 CFU/ml of bacteria ([6]; treated for 60 minutes): 0 log10 CFU/ml
2 | CC(C)[C@H]1CC[C@@H](C)C[C@@H]1O [0.05% Menthol, 5-methyl-2-propan-2-yl-cyclohexan-1-ol] | 5.3 | 0 | 0 | 6.2 | 4.9 | 3.8 | 6.3 | 6.3 | 6.2 | 4.9 | 4.9 | 4.9 | 6.4 | 6.3 | 6.2 | 5.8 | 3.5 | 2.5 | 5.4 | 5.4 | log10 CFU/ml of bacteria ([6]; treated for 60 minutes): 5.3 log10 CFU/ml
